Our source for the Kd values is patent US8362000B2, “Azetidinyl diamides as monoacylglycerol lipase inhibitors” (Janssen Pharmaceutica NV, priority 2009, dated 2013).

A value given as a limit tells only on which side of the number the result lay.

The target of the first assay is T1, mutant MGL (Homo sapiens, UniProt Q99685, L169S/L176S).
T1 sequence (Q99685 1-303 L169S/L176S): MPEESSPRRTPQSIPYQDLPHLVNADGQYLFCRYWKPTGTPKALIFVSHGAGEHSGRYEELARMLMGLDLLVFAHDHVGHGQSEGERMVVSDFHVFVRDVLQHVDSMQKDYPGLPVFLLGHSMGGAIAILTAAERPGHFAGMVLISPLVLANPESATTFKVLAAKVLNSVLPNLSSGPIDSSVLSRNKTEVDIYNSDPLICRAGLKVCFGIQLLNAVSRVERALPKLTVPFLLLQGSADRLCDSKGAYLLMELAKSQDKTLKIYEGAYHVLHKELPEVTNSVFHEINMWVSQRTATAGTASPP
As to the kind of experiment: MGL ThermoFluor assay - mutant. It is filed as binding. To be noted: ThermoFluor concentration-response, read-out: MGL mutant ThermoFluor Kd. In general terms: DSF heats the sample and reads unfolding from a dye or from intrinsic fluorescence.
As for `O=C(c1ccccc1)N1CCN(C2CN(C(=O)c3ccc(-c4ccc(Cl)cc4)cc3)C2)CC1` [Cpd 78, 1-{1-[(4′-Chlorobiphenyl-4-yl)carbonyl]azetidin-3-yl}-4-(phenylcarbonyl)piperazine], the Kd was 0.08 µM.
Take `O=C(c1ccccc1)N1CCN(C2CN(C(=O)c3ccc(NCc4ccccc4Cl)cc3)C2)CC1` [Cpd 492, N-(2-Chlorobenzyl)-4-({3-[4-(phenylcarbonyl)piperazin-1-yl]azetidin-1-yl}carbonyl)aniline]: the Kd stood at 0.167 µM.
`O=C(c1ccccc1)N1CCN(C2CN(C(=O)c3ccc(-n4ccc(C(F)(F)F)n4)cc3)C2)CC1` [Cpd 622, 1-(Phenylcarbonyl)-4-[1-({4-[3-(trifluoromethyl)-1H-pyrazol-1-yl]phenyl}carbonyl)azetidin-3-yl]piperazine]: the Kd was 3.6 µM.
Consider `O=C(c1ccc(CNc2cccc(Cl)c2)cc1)N1CC(N2CCN(C(=O)c3nccs3)CC2)C1` [Cpd 455], for which the Kd was determined as 0.0085 µM.
Regarding `Cc1ccc(C(=O)N2CCN(C3CN(C(=O)c4ccc(-c5ccccc5)cc4)C3)CC2)s1` [Cpd 14, 1-[1-(Biphenyl-4-ylcarbonyl)azetidin-3-yl]-4-[(5-methylthiophen-2-yl)carbonyl]piperazine], the Kd is 0.25 µM.
On the same count and under the same terms, to `O=C(c1cccc(-c2cccc(Br)n2)c1)N1CC(N2CCN(C(=O)c3nccs3)CC2)C1` [Cpd 151, 1-(1-{[3-(6-Bromopyridin-2-yl)phenyl]carbonyl}azetidin-3-yl)-4-(1,3-thiazol-2-ylcarbonyl)piperazine] belongs 0.025 µM.
The same measure, in the same setting: to `O=C(c1ccccc1)N1CCN(C2CN(C(=O)c3ccc(CSc4cccc(Cl)c4)cc3)C2)CC1` [Cpd 551] belongs 0.18 µM; to `Cc1oc(-c2ccccc2)cc1C(=O)N1CC(N2CCN(C(=O)c3ccccc3)CC2)C1` [Cpd 623, 1-{1-[(2-Methyl-5-phenylfuran-3-yl)carbonyl]azetidin-3-yl}-4-(phenylcarbonyl)piperazine], 1 µM.
For `CS(=O)(=O)c1ccc(C(=O)N2CC(N3CCN(C(=O)c4ccccc4)CC3)C2)cc1` [Cpd 472, 1-(1-{[4-(Methylsulfonyl)phenyl]carbonyl}azetidin-3-yl)-4-(phenylcarbonyl)piperazine], the Kd is 6.67 µM.
Take `O=C(c1ccc(-c2ccccc2)cc1)N1CC(N2CCN(C(=O)c3ccc(Br)s3)CC2)C1` [Cpd 15, 1-[1-(Biphenyl-4-ylcarbonyl)azetidin-3-yl]-4-[(5-bromothiophen-2-yl)carbonyl]piperazine]: the Kd came out at 0.286 µM.
Still for that read-out and setting: the value for `CSc1ccc(C(=O)N2CC(N3CCN(C(=O)c4ccccc4)CC3)C2)cc1` [Cpd 470, 1-(1-{[4-(Methylsulfanyl)phenyl]carbonyl}azetidin-3-yl)-4-(phenylcarbonyl)piperazine] was 2.94 µM.
Same read-out and setting: to `O=C(c1ccccc1)N1CCN(C2CN(C(=O)c3nc(-c4ccccc4)oc3C(F)(F)F)C2)CC1` [Cpd 625, 1-(Phenylcarbonyl)-4-(1-{[2-phenyl-5-(trifluoromethyl)-1,3-oxazol-4-yl]carbonyl}azetidin-3-yl)piperazine] belongs over 31.2 µM; to `CCCn1ccc2cc(C(=O)N3CC(N4CCN(C(=O)c5ccccc5)CC4)C3)ccc21` [Cpd 42, 5-({3-[4-(Phenylcarbonyl)piperazin-1-yl]azetidin-1-yl}carbonyl)-1-propyl-1H-indole], 0.0833 µM.
Same read-out and setting: to `O=C(c1ccccc1)N1CCN(C2CN(C(=O)c3ccc(Cc4ccccc4)cc3)C2)C(CO)C1` (stereo not shown) [Cpd 457, [1-{1-[(4-Benzylphenyl)carbonyl]azetidin-3-yl}-4-(phenylcarbonyl)piperazin-2-yl]methanol] belongs 4.82 µM; to `CC(C)(C)OC(=O)N1CCC(c2ccc(C(=O)N3CC(N4CCN(C(=O)c5ccccc5)CC4)C3)cc2)CC1` [Cpd 109, tert-Butyl 4-[4-({3-[4-(phenylcarbonyl)piperazin-1-yl]azetidin-1-yl}carbonyl)phenyl]piperidine-1-carboxylate], 0.0333 µM; to `O=C(c1ccccc1)N1CCN(C2CN(C(=O)c3cccnc3Oc3ccc(Cl)cc3)C2)CC1` [Cpd 474, 1-(1-{[2-(4-Chlorophenoxy)pyridin-3-yl]carbonyl}azetidin-3-yl)-4-(phenylcarbonyl)piperazine], 5 µM.
`O=C(c1cscn1)N1CCN(C2CN(C(=O)[C@@H]3C[C@H]3c3ccc(SC(F)(F)F)cc3)C2)CC1` (racemic) [Cpd 645, 1-(1,3-Thiazol-4-ylcarbonyl)-4-(1-{[(1RS,2RS)-2-{4-[(trifluoromethyl)sulfanyl]phenyl}cyclopropyl]carbonyl}azetidin-3-yl)piperazine]: the Kd is 5.44 µM.
For the compound `O=C(c1cncc(-c2ccccc2)c1)N1CC(N2CCN(C(=O)c3cscn3)CC2)C1` [Cpd 169], the Kd is 30.3 µM.
In the case of `Cc1nc(-c2ccc(Cl)cc2)sc1C(=O)N1CC(N2CCN(C(=O)c3ccccc3)CC2)C1` [Cpd 619], the Kd is 0.172 µM.
Same read-out and setting: the value for `O=C(c1ccc(CSc2cccc(Cl)c2)cc1)N1CC(N2CCN(C(=O)C(F)(F)F)CC2)C1` [Cpd 955] was 1.11 µM; that for `N#Cc1ccc(-c2ccc(C(=O)N3CC(N4CCN(C(=O)c5ccccc5)CC4)C3)cc2)cc1` [Cpd 82, 4′-({3-[4-(Phenylcarbonyl)piperazin-1-yl]azetidin-1-yl}carbonyl)biphenyl-4-carbonitrile] was 0.571 µM; that for `O=C(c1ccc(-c2ccccc2)cc1)N1CCN(C2CN(C(=O)c3ncccn3)C2)CC1` [Cpd 1400, 2-({3-[4-(Biphenyl-4-ylcarbonyl)piperazin-1-yl]azetidin-1-yl}carbonyl)pyrimidine] was 4.07 µM.
With `O=C(c1ccc(OCc2cccc(Cl)c2)cc1)N1CC(N2CCN(C(=O)C(F)(F)F)CC2)C1` [Cpd 958], the Kd was determined as 0.216 µM.
As to `O=C(c1cscn1)N1CCN(C2CN(C(=O)c3cc(Br)ccc3F)C2)CC1` [Cpd 925], the Kd was over 62.5 µM.
On the same count and under the same terms, the value for `O=C(c1ccccc1)N1CCN(C2CN(C(=O)c3cncc(-c4ccccc4)c3)C2)CC1` [Cpd 80, 1-(Phenylcarbonyl)-4-{1-[(5-phenylpyridin-3-yl)carbonyl]azetidin-3-yl}piperazine] was 49.5 µM.

The assay is the same for the next values; noted with them: ThermoFluor thermal stability binding assay, read-out: MGL mutant ThermoFluor Kd.
Turning to `O=C(c1ccccc1)N1CCN(C2CN(C(=O)c3ccc(OCc4ccc(C(F)(F)F)c(F)c4)cc3)C2)CC1` [Cpd 395], the Kd was 0.159 µM.
`O=C(c1ccccc1)N1CCN(C2CN(C(=O)c3ccc(OCc4ccc(S(=O)(=O)N5CCOCC5)cc4)cc3)C2)CC1` [Cpd 394]: the Kd turned out to be 0.846 µM.
On the same count and under the same terms, the value for `O=C(c1ccc(OCc2ccc3ccccc3n2)cc1)N1CC(N2CCN(C(=O)c3cscn3)CC2)C1` [Cpd 970] was 0.535 µM; that for `O=C(c1nccs1)N1CCN(C2CN(C(=O)c3cccc4nc(Cc5cccc(F)c5)[nH]c34)C2)CC1` [Cpd 990] was 1 µM; that for `O=C(c1cscn1)N1CCN(C2CN(C(=O)c3cccc4nc(-c5cccc(Cl)c5)[nH]c34)C2)CC1` [Cpd 1389] was 0.422 µM.
For the compound `O=C(c1cscn1)N1CCN(C2CN(C(=O)c3cc(-c4ccccc4)oc3C(F)(F)F)C2)CC1` [Cpd 1397], the Kd was determined as 0.5 µM.
As to `O=C(c1ccccc1)N1CCN(C2CN(C(=O)c3ccc(OCc4ccncc4)cc3)C2)CC1` [Cpd 396], the Kd came out at 4.27 µM.
In the case of `CC(=O)N1c2ccc(Br)cc2CCC1C(=O)N1CC(N2CCN(C(=O)c3ccccc3)CC2)C1` (stereo not shown) [Cpd 378], the Kd is over 76.7 µM.
Still for that read-out and setting: the value for `O=C(c1ccccc1)N1CCN(C2CN(C(=O)c3ccc(OCc4cccc(Br)n4)cc3)C2)CC1` [Cpd 552] was 0.4 µM; that for `CC(=O)Nc1cccc(-c2ccc(C(=O)N3CC(N4CCN(C(=O)c5cscn5)CC4)C3)cc2)c1` [Cpd 235, N-[4′-({3-[4-(1,3-Thiazol-4-ylcarbonyl)piperazin-1-yl]azetidin-1-yl}carbonyl)biphenyl-3-yl]acetamide] was 0.588 µM; that for `O=C(C=Cc1ccc2ccccc2c1)N1CC(N2CCN(C(=O)c3nccs3)CC2)C1` [Cpd 297] was 0.333 µM.
As to `O=C(c1ccccc1)N1CCN(C2CN(C(=O)c3ccc4c(ccn4S(=O)(=O)c4ccccc4)c3)C2)CC1` [Cpd 130], the Kd came to 0.25 µM.
With `Cc1cc(C(=O)N2CC(N3CCN(C(=O)c4nccs4)CC3)C2)ccc1-c1cccc(C(F)(F)F)c1` [Cpd 241, 1-(1-{[2-Methyl-3′-(trifluoromethyl)biphenyl-4-yl]carbonyl}azetidin-3-yl)-4-(1,3-thiazol-2-ylcarbonyl)piperazine], the Kd came to 0.0005 µM.
For the compound `O=C(c1ccccc1)N1CCN(C2CN(C(=O)c3ccc(OCc4ccc(Cl)c(Cl)c4)c(Cl)c3)C2)CC1` [Cpd 399], the Kd worked out at 0.0408 µM.
Still for that read-out and setting: to `O=C(c1ccc(-c2ccccc2)cc1)N1CC(N2CCN(C(=O)c3ncccn3)CC2)C1` [Cpd 1478] belongs over 31.2 µM.
As to `O=C(c1ccc2c(c1)CCCN2c1ncccn1)N1CC(N2CCN(C(=O)c3nccs3)CC2)C1` [Cpd 375, 1-Pyrimidin-2-yl-6-({3-[4-(1,3-thiazol-2-ylcarbonyl)piperazin-1-yl]azetidin-1-yl}carbonyl)-1,2,3,4-tetrahydroquinoline], the Kd worked out at 0.229 µM.
As for `Cc1cc(C(=O)N2CC(N3CCN(C(=O)c4cscn4)CC3)C2)ccc1-c1ccc(Cl)c(C(F)(F)F)c1` [Cpd 258, 1-(1-{[4′-Chloro-2-methyl-3′-(trifluoromethyl)biphenyl-4-yl]carbonyl}azetidin-3-yl)-4-(1,3-thiazol-4-ylcarbonyl)piperazine], the Kd was determined as 0.0033 µM.

The same assay, now with this note: ThermoFluor, compound concentration measured by qNMR, read-out: MGL mutant ThermoFluor qKd (μM) (using qNMR conc.).
As to `N#Cc1ccccc1-n1ccc2cc(C(=O)N3CC(N4CCN(C(=O)c5ccccc5)CC4)C3)ccc21` [Cpd 588, 2-[5-({3-[4-(Phenylcarbonyl)piperazin-1-yl]azetidin-1-yl}carbonyl)-1H-indol-1-yl]benzonitrile], the Kd was 0.512 µM.
